In PubChem BioAssay (NCI):
Values joined by “and” are separate entries in the source; they are usually repeats but may differ in a detail not shown here. Equal entries are not always repeated.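 Results reflect a 48-hour exposure of cells in 96-well plates to compound at five concentrations. GI50: concentration for 50% inhibition of growth. TGI is the concentration that stops growth completely.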

Tests used:
Test in all cases: NCI tumour cell line growth inhibition, 48 h
SNB-75 CNS = system: SNB-75 CNS
HCT-116 colon = system: HCT-116 colon
MCF7 breast = system: MCF7 breast
NCI/ADR-RES ovarian = system: NCI/ADR-RES ovarian
A498 renal = system: A498 renal
RXF 393 renal = system: RXF 393 renal
MDA-MB-231 breast = system: MDA-MB-231 breast
LOX IMVI melanoma = system: LOX IMVI melanoma
SK-MEL-2 melanoma = system: SK-MEL-2 melanoma
HOP-92 NSCLC = system: HOP-92 NSCLC

C[N+]1(C)C2CCC1CC(OC(=O)C(CO)c1ccccc1)C2 (stereo not given)
TGI (SNB-75 CNS): > 100 µM | TGI (HCT-116 colon): > 100 µM | TGI (MCF7 breast): > 100 µM | TGI (NCI/ADR-RES ovarian): > 100 µM | TGI (A498 renal): > 100 µM | TGI (RXF 393 renal): > 100 µM | TGI (MDA-MB-231 breast): > 100 µM | TGI (LOX IMVI melanoma): > 100 µM | TGI (SK-MEL-2 melanoma): > 100 µM

Cc1nc(Cl)c(C)c(Cl)n1
TGI (SNB-75 CNS): > 100 µM | TGI (HCT-116 colon): > 100 µM | TGI (MCF7 breast): > 100 µM | TGI (NCI/ADR-RES ovarian): > 100 µM | TGI (A498 renal): > 100 µM | TGI (RXF 393 renal): > 100 µM | TGI (MDA-MB-231 breast): > 100 µM | TGI (LOX IMVI melanoma): > 100 µM | TGI (SK-MEL-2 melanoma): > 100 µM

Cc1c(N)nc([C@H](CC(N)=O)NC[C@H](N)C(N)=O)nc1C(=O)N[C@H](C(=O)N[C@H](C)[C@@H](O)[C@H](C)C(=O)N[C@H](C(=O)NCCc1nc(-c2nc(C(=O)NCCC[S+](C)C)cs2)cs1)[C@@H](C)O)C(OC1OC(CO)C(O)C(O)C1OC1OC(CO)C(O)C(OC(N)=O)C1O)c1cnc[nH]1 (stereo not given in full)
GI50 (SNB-75 CNS): 5.98 µM and 1.06 µM | TGI (SNB-75 CNS): 6.42 µM and 13.4 µM and 18.8 µM | TGI (HCT-116 colon): 20.9 µM [middle of 4 runs] | GI50 (MCF7 breast): 1.71 µM and 3.16 µM | TGI (MCF7 breast): 22.5 µM and 25 µM and > 100 µM | GI50 (NCI/ADR-RES ovarian): 1.21 µM and 1.09 µM | TGI (NCI/ADR-RES ovarian): 12.8 µM and 4.87 µM and 5.61 µM | TGI (A498 renal): 19.6 µM and 29 µM and 41.5 µM | GI50 (MDA-MB-231 breast): 23.3 µM and 78.8 µM | TGI (MDA-MB-231 breast): 25 µM and > 100 µM | GI50 (LOX IMVI melanoma): 0.0661 µM | TGI (LOX IMVI melanoma): 5.32 µM and 1.89 µM and 1.51 µM

Cc1c2c(cc3c1[nH]c1ccccc13)C(c1ccc(F)cc1)=NCC2
TGI (SNB-75 CNS): 4.39 µM | TGI (HCT-116 colon): 5.41 µM | TGI (HOP-92 NSCLC): 7.27 µM | TGI (MCF7 breast): 7.78 µM | TGI (NCI/ADR-RES ovarian): 2.36 µM | TGI (A498 renal): 4.73 µM | TGI (RXF 393 renal): 4.32 µM | TGI (LOX IMVI melanoma): 3.02 µM | TGI (SK-MEL-2 melanoma): 3.28 µM

CN1CCN(CCCOc2ccc3ncnc(Nc4ccc(Oc5cccc(C(F)(F)F)c5)c(Cl)c4)c3c2)CC1
GI50 (SNB-75 CNS): 1.15 µM | TGI (SNB-75 CNS): 3.13 µM | GI50 (HOP-92 NSCLC): 1.33 µM | TGI (HOP-92 NSCLC): 3.9 µM | GI50 (MCF7 breast): 1.38 µM | TGI (MCF7 breast): 3.06 µM | GI50 (NCI/ADR-RES ovarian): 2.4 µM | TGI (NCI/ADR-RES ovarian): 8.62 µM | GI50 (A498 renal): 1.42 µM | TGI (A498 renal): 3.23 µM | GI50 (RXF 393 renal): 1.49 µM | TGI (RXF 393 renal): 2.93 µM | GI50 (MDA-MB-231 breast): 1.72 µM | TGI (MDA-MB-231 breast): 3.15 µM | GI50 (LOX IMVI melanoma): 1.3 µM | TGI (LOX IMVI melanoma): 2.81 µM | GI50 (SK-MEL-2 melanoma): 1.86 µM | TGI (SK-MEL-2 melanoma): 3.72 µM

CC(=O)C1(c2ccccc2)CCCN(C)CC1 (stereo not given)
TGI (SNB-75 CNS): > 100 µM | TGI (HCT-116 colon): > 100 µM | TGI (HOP-92 NSCLC): > 100 µM | TGI (MCF7 breast): > 100 µM | TGI (NCI/ADR-RES ovarian): > 100 µM | TGI (A498 renal): > 100 µM | TGI (MDA-MB-231 breast): > 100 µM | TGI (LOX IMVI melanoma): > 100 µM | TGI (SK-MEL-2 melanoma): > 100 µM

CCn1cc(C(=O)O)c(=O)c2cc(F)c(N3CCN(Cn4c(O)c(N=NC(=O)c5ccncc5)c5cc(Cl)ccc54)CC3)cc21
TGI (SNB-75 CNS): 70.1 µM | TGI (HCT-116 colon): > 100 µM | TGI (HOP-92 NSCLC): > 100 µM | TGI (MCF7 breast): > 100 µM | TGI (NCI/ADR-RES ovarian): > 100 µM | TGI (A498 renal): > 100 µM | TGI (RXF 393 renal): 51.3 µM | TGI (MDA-MB-231 breast): > 100 µM | TGI (LOX IMVI melanoma): > 100 µM | TGI (SK-MEL-2 melanoma): 60.9 µM

COc1ccc(/C=c2/[nH]c(=O)/c(=C\c3ccc(OCc4ccccc4)cn3)[nH]c2=O)cc1
TGI (SNB-75 CNS): 61 µM | TGI (HCT-116 colon): > 100 µM | TGI (HOP-92 NSCLC): 80 µM | TGI (MCF7 breast): > 100 µM | TGI (NCI/ADR-RES ovarian): > 100 µM | TGI (A498 renal): > 100 µM | TGI (RXF 393 renal): 83.5 µM | TGI (MDA-MB-231 breast): > 100 µM | TGI (LOX IMVI melanoma): > 100 µM | TGI (SK-MEL-2 melanoma): > 100 µM

O=C1c2scnc2-c2nccc3c2c1nc1ccccc13
TGI (SNB-75 CNS): 1.92 µM | TGI (HOP-92 NSCLC): 4.85 µM | TGI (MCF7 breast): 1.03 µM | TGI (NCI/ADR-RES ovarian): > 100 µM | TGI (A498 renal): 2.52 µM | TGI (RXF 393 renal): 3.98 µM | TGI (LOX IMVI melanoma): 0.508 µM | TGI (SK-MEL-2 melanoma): 4.34 µM

Cc1c(Cl)c(=O)oc2cc(OCC(=O)c3ccccc3)ccc12
TGI (HOP-92 NSCLC): > 100 µM | TGI (MCF7 breast): > 100 µM | TGI (NCI/ADR-RES ovarian): > 100 µM | TGI (A498 renal): > 100 µM | TGI (RXF 393 renal): > 100 µM | TGI (MDA-MB-231 breast): 75.4 µM | TGI (SK-MEL-2 melanoma): > 100 µM

COC1(OC)C[C@H](C)[C@@]23O[C@]24c2cc(O)c5c(c2N[C@H]3C#C/C=C\C#C[C@]14O)C(=O)c1ccccc1C5=O
GI50 (SNB-75 CNS): 0.0028 µM | TGI (SNB-75 CNS): 0.00927 µM and 0.0318 µM | TGI (HCT-116 colon): 0.148 µM | TGI (HOP-92 NSCLC): 0.00982 µM | GI50 (NCI/ADR-RES ovarian): 0.00223 µM | GI50 (A498 renal): 0.005 µM | TGI (A498 renal): 0.00964 µM and 0.0459 µM | GI50 (RXF 393 renal): 0.00163 µM | TGI (RXF 393 renal): 0.0256 µM and 0.0186 µM | GI50 (MDA-MB-231 breast): 0.0199 µM | TGI (LOX IMVI melanoma): 0.049 µM | GI50 (SK-MEL-2 melanoma): 0.359 µM and 0.0593 µM | TGI (SK-MEL-2 melanoma): 0.355 µM

O=c1c2c([nH]c3nccn13)CCCC2
TGI (SNB-75 CNS): > 10 µM | TGI (HCT-116 colon): > 10 µM | TGI (MCF7 breast): > 10 µM | TGI (NCI/ADR-RES ovarian): > 10 µM | TGI (A498 renal): > 10 µM | TGI (RXF 393 renal): > 10 µM | TGI (MDA-MB-231 breast): > 10 µM | TGI (LOX IMVI melanoma): > 10 µM | TGI (SK-MEL-2 melanoma): > 10 µM

O=C1OC(c2ccccc2)=N/C1=C/c1cccs1
TGI (SNB-75 CNS): > 100 µM | TGI (HOP-92 NSCLC): > 100 µM | TGI (MCF7 breast): > 100 µM | TGI (NCI/ADR-RES ovarian): 83.7 µM | TGI (RXF 393 renal): > 100 µM | TGI (SK-MEL-2 melanoma): > 100 µM

O=C1CC(N2C(=O)/C(=C/C(Cl)=C\c3ccc([N+](=O)[O-])cc3)SC2=S)C(=O)N1c1ccc(Cl)cc1 (stereo not given)
GI50 (HCT-116 colon): 1.35 µM | TGI (HCT-116 colon): 3.04 µM | GI50 (HOP-92 NSCLC): 2.58 µM | TGI (HOP-92 NSCLC): 6.79 µM | GI50 (MCF7 breast): 1.38 µM | TGI (MCF7 breast): > 100 µM | GI50 (NCI/ADR-RES ovarian): 1.01 µM | TGI (NCI/ADR-RES ovarian): 6.19 µM | GI50 (RXF 393 renal): 1.26 µM | TGI (RXF 393 renal): 2.72 µM | GI50 (MDA-MB-231 breast): 3.75 µM | TGI (MDA-MB-231 breast): 47.8 µM | GI50 (SK-MEL-2 melanoma): 3.12 µM | TGI (SK-MEL-2 melanoma): 32.1 µM

CCCCC1Cc2cc(OC)ccc2-c2nc3cc(OC)ccc3n21 (stereo not given) (tested in a mixture with another compound)
TGI (HCT-116 colon): 22.8 µM | TGI (HOP-92 NSCLC): 17.1 µM | TGI (MCF7 breast): 33.5 µM | TGI (NCI/ADR-RES ovarian): 26.4 µM | TGI (RXF 393 renal): 30.8 µM | TGI (MDA-MB-231 breast): 25.7 µM | TGI (LOX IMVI melanoma): 30 µM
